Measured values reported in patent publication US7723326B2, “Heterocyclic amide derivatives as RXR agonists for the treatment of dyslipidemia, hypercholesterolemia and diabetes” (Janssen Pharmaceutica N.V., priority 2005, dated 2010).
Values joined by “and” are separate entries in the source; they are usually repeats but may differ in a detail not shown here. Equal values may be shown once.

Legend:
[1] = system: ABCA1 mRNA in THP-1 cells; test: ABCA1 bDNA assay (ABCA1 mRNA induction); assay type: cell-based; conditions: Homo sapiens; for EC50: ABCA1 mRNA induction, usually 18-24 hrs; for Emax at 3 µM: relative to MX-6054, read-out: ABCA1 % max MX-6054
Procedure: THP-1 cells, a human monocytic cell line, were obtained from ATCC and maintained in RPMI (Gibco) supplemented with 10% fetal bovine serum (Gibco), 2mM L-glutamine and 1% antibiotic-antimycotic in 5% CO2 at 37° C. For ABCA1 mRNA induction assays, the cells were pelleted and resuspended in RPMI supplemented with 0.5% charcoal treated serum (Hyclone), 2 mM glutamine and 1% antibiotic-antimycotic. The cells were plated at a density of 40,000 cells/90 μl and incubated as above for at least 4 hours before the initiation of treatments. Compounds were prepared as 10 mM stocks in DMSO. For treatments, the compounds were diluted in medium and 10 μl of 10× stocks were added to the cells at a final concentration 0.1% DMSO. The cells were incubated for the desired amount of time (usually 18-24 hrs) and then lyzed with 50 μl of Quantigene HV bDNA lysis buffer which also contained the ABCA1 bDNA probes (probe sequences shown below): […]

[2] = biological target: T1, RXR ligand binding domain (accession number X52773) fused with the DNA binding domain of yeast GAL4 (Homo sapiens, UniProt P19793); test: RXR co-transfection assay (GAL4-LBD luciferase reporter in HEK293 cells); assay type: cell-based; conditions: 16-18 hours
T1 construct: expressed in transfected cells; host or cells: HEK293
T1 sequence (P19793 227-458 limits assumed): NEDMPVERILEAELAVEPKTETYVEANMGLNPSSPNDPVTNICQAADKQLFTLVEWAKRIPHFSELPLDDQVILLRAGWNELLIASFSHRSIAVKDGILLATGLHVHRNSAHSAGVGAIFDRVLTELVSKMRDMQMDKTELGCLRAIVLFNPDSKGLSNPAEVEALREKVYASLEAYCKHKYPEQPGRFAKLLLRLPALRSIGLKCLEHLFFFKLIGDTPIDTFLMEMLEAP
Procedure: The nucleic acid sequence from 676-1464bp (accession number X52773) encoding the ligand binding domains was subcloned into the pM vector (BD Biosciences Clontech, Palo Alto, Calif.) and were fused with the DNA binding domain of yeast GAL4. HEK293 cells were cultured in DMEM/F12 medium supplemented with 10% FBS and 1% 1-glutamine (growth medium). Cells were seeded at a density of 5-10×10^6 cells in 50 ml of growth medium and left overnight, The medium was removed and the cells were washed with 15 ml of OptiMEM serum free medium (Invitrogen Corp). The cells were transfected using OptiMEM serum free medium and DMRIE transfection reagent (Invitrogen Corp). Approximately 10-30 ng of DNA for the different receptors and 5-10 ng of the luciferase reporter (1:1 ratio for RAR and 4:1 ratio for RXR of receptor DNA:reporter DNA) were gently mixed with 51 μl of DMRIE reagent in a total volume of 17 ml of OptiMEM medium. Eighteen hours after transfection, the cells were washed once with growth medium and then incubated for 6 hrs in 30 ml of growth medium. The cells were then trypsinized, and reseeded at a density of 50,000 per well in 96 well plates and left overnight. The medium was replaced with 90 μl of medium containing DMEM/F12 supplemented with 0.5% charcoal-treated FBS (HyClone; Logan, Utah) and 1% glutamine. Compounds or vehicle were added in 10 μl of 10× concentration of compound or vehicle (0.1% dimethyl sulfoxide). The cells were treated for 16-18 hours, lysed and assayed for luciferase activity using the Steady Gio luciferase assay kit (Promega, Madison, Wis.).

Row | SMILES | EC50 [1] [µM] | Emax at 3 µM [1] [%] | EC50 [2]
1 | CCN1C(=O)OCc2cc(C)c(-c3cc([C@@H]4C[C@H]4C(=O)O)ccc3OC(F)(F)F)cc21 (racemic) [Compound 21, 2-[3-(1-Ethyl-6-methyl-2-oxo-1,4-dihydro-2H-benzo[d][1,3]oxazin-7-yl)-4-trifluoromethoxy-phenyl]-cyclopropanecarboxylic acid] | > 2 |  | 
2 | CCN1C(=O)C(C)(C)Oc2cc(C)c(-c3cc([C@@H]4C[C@H]4C(=O)O)ccc3OC(F)(F)F)cc21 (racemic) [Compound 22, 2-[3-(4-Ethyl-2,2,7-trimethyl-3-oxo-3,4-dihydro-2H-benzo[1,4]oxazin-6-yl)-4-trifluoromethoxy-phenyl]-cyclopropanecarboxylic acid] | > 2 | 28.6 | 0.385 µM
3 | Cc1cc2c(cc1-c1cc(C3CC3C(=O)O)ccc1OC(F)(F)F)N(C(C)C)C(=O)C(C)(C)O2 (racemic) [Compound 23, 2-[3-(4-Isopropyl-2,2,7-trimethyl-3-oxo-3,4-dihydro-2H-benzo[1,4]oxazin-6-yl)-4-trifluoromethoxy-phenyl]-cyclopropanecarboxylic acid] | > 2 | 64.1 | 0.719 µM
4 | CCn1c(=O)c(=O)n(CC)c2cc(-c3cc([C@@H]4C[C@H]4C(=O)O)ccc3OC(F)(F)F)c(C)cc21 (racemic) [Compound 26, 2-[3-(1,4-Diethyl-7-methyl-2,3-dioxo-1,2,3,4-tetrahydro-quinoxalin-6-yl)-4-trifluoromethoxy-phenyl]-cyclopropanecarboxylic acid] | > 2 |  | > 2 µM
5 | CCN1C(=O)C(C)(C)Oc2cc(C)c(-c3cc(/C=C/C(=O)O)ccc3OC(F)(F)F)cc21 [Compound 1, 3-[3-(4-Ethyl-2,2,7-trimethyl-3-oxo-3,4-dihydro-2H-benzo[1,4]oxazin-6-yl)-4-trifluoromethoxy-phenyl]-acrylic acid] | 0.0397 |  | 0.151 µM and 0.18 µM and 0.189 µM
6 | CCN1C(=O)C(C)(C)Oc2cc(C)c(-c3cc(/C=C/C(=O)O)ccc3OCC(F)(F)F)cc21 [Compound 2, 3-[3-(4-Ethyl-2,2,7-trimethyl-3-oxo-3,4-dihydro-2H-benzo[1,4]oxazin-6-yl)-4-(2,2,2-trifluoro-ethoxy)-phenyl]-acrylic acid] | > 2 |  | > 2 µM
7 | Cc1cc2c(cc1-c1cc(/C=C/C(=O)O)ccc1OC(F)(F)F)N(C)C(=O)C(C)(C)O2 [Compound 3, 3-[3-(2,2,4,7-Tetramethyl-3-oxo-3,4-dihydro-2H-benzo[1,4]oxazin-6-yl)-4-trifluoromethoxy-phenyl]-acrylic acid] | > 2 | 8.4 | > 2 µM
8 | Cc1cc2c(cc1-c1cc(/C=C/C(=O)O)ccc1OC(F)(F)F)N(C(C)C)C(=O)C(C)(C)O2 [Compound 4, 3-[3-(4-Isopropyl-2,2,7-trimethyl-3-oxo-3,4-dihydro-2H-benzo[1,4]oxazin-6-yl)-4-trifluoromethoxy-phenyl]-acrylic acid] | 0.43 | 79 | 0.0988 µM
9 | Cc1cc2c(cc1-c1cc(/C=C/C(=O)O)ccc1OCC(F)(F)F)N(C)C(=O)C(C)(C)O2 [Compound 5, 3-[3-(2,2,4,7-Tetramethyl-3-oxo-3,4-dihydro-2H-benzo[1,4]oxazin-6-yl)-4-(2,2,2-trifluoro-ethoxy)-phenyl]-acrylic acid] | > 2 |  | > 2 µM
10 | CCN1C(=O)COc2cc(C)c(-c3cc(/C=C/C(=O)O)ccc3OC(F)(F)F)cc21 [Compound 6, 3-[3-(4-Ethyl-7-methyl-3-oxo-3,4-dihydro-2H-benzo[1,4]oxazin-6-yl)-4-trifluoromethoxy-phenyl]-acrylic acid] | > 2 |  | 
11 | CCN1C(=O)C(C)Oc2cc(C)c(-c3cc(/C=C/C(=O)O)ccc3OC(F)(F)F)cc21 (stereo not shown) [Compound 7, 3-[3-(4-Ethyl-2,7-dimethyl-3-oxo-3,4-dihydro-2H-benzo[1,4]oxazin-6-yl)-4-trifluoromethoxy-phenyl]-acrylic acid] | > 2 |  | 
12 | CCC1Oc2cc(C)c(-c3cc(/C=C/C(=O)O)ccc3OC(F)(F)F)cc2N(CC)C1=O (stereo not shown) [Compound 8, 3-[3-(2,4-Diethyl-7-methyl-3-oxo-3,4-dihydro-2H-benzo[1,4]oxazin-6-yl)-4-trifluoromethoxy-phenyl]-acrylic acid] | > 2 |  | 
13 | CCN1C(=O)C(C(C)C)Oc2cc(C)c(-c3cc(/C=C/C(=O)O)ccc3OC(F)(F)F)cc21 (stereo not shown) [Compound 9, 3-[3-(4-Ethyl-2-isopropyl-7-methyl-3-oxo-3,4-dihydro-2H-benzo[1,4]oxazin-6-yl)-4-trifluoromethoxy-phenyl]-acrylic acid] | > 2 |  | 
14 | CCN1C(=O)C(C)(C)Oc2cc(C)c(-c3cc(/C=C(\C)C(=O)O)ccc3OC(F)(F)F)cc21 [Compound 10, 3-[3-(4-Ethyl-2,2,7-trimethyl-3-oxo-3,4-dihydro-2H-benzo[1,4]oxazin-6-yl)-4-trifluoromethoxy-phenyl]-2-methyl-acrylic acid] | > 2 | 37.2 | 1.4 µM
15 | CCN1C(=O)OC(C)(C)c2cc(C)c(-c3cc(/C=C/C(=O)O)ccc3OC(F)(F)F)cc21 [Compound 14, 3-[3-(1-Ethyl-4,4,6-trimethyl-2-oxo-1,4-dihydro-2H-benzo[d][1,3]oxazin-7-yl)-4-trifluoromethoxy-phenyl]-acrylic acid] | > 2 |  | 
16 | CCN1C(=O)OCc2cc(C)c(-c3cc(/C=C/C(=O)O)ccc3OC(F)(F)F)cc21 [Compound 15, 3-[3-(1-Ethyl-6-methyl-2-oxo-1,4-dihydro-2H-benzo[d][1,3]oxazin-7-yl)-4-trifluoromethoxy-phenyl]-acrylic acid] | > 2 |  | 
17 | CCN1C(=O)OC(C(C)C)c2cc(C)c(-c3cc(/C=C/C(=O)O)ccc3OC(F)(F)F)cc21 (stereo not shown) [Compound 16, 3-[3-(1-Ethyl-4-isopropyl-6-methyl-2-oxo-1,4-dihydro-2H-benzo[d][1,3]oxazin-7-yl)-4-trifluoromethoxy-phenyl]-acrylic acid] | > 2 |  | 
18 | CCN1C(=O)OC(C)(C)c2cc(C)c(-c3cc(CCC(=O)O)ccc3OC(F)(F)F)cc21 [Compound 17, 3-[3-(1-Ethyl-4,4,6-trimethyl-2-oxo-1,4-dihydro-2H-benzo[d][1,3]oxazin-7-yl)-4-trifluoromethoxy-phenyl]-propionic acid] | > 2 |  | 
19 | CCN1C(=O)OC(C)(C)c2cc(C)c(-c3cc([C@@H]4C[C@H]4C(=O)O)ccc3OC(F)(F)F)cc21 [Compound 19, 2-[3-(1-Ethyl-4,4,6-trimethyl-2-oxo-1,4-dihydro-2H-benzo[d][1,3]oxazin-7-yl)-4-trifluoromethoxy-phenyl]-cyclopropanecarboxylic acid] | > 2 |  | 
20 | CCN1C(=O)OC(C(C)C)c2cc(C)c(-c3cc([C@@H]4C[C@H]4C(=O)O)ccc3OC(F)(F)F)cc21 (stereo partly shown) [Compound 20, 2-[3-(1-Ethyl-4-isopropyl-6-methyl-2-oxo-1,4-dihydro-2H-benzo[d][1,3]oxazin-7-yl)-4-trifluoromethoxy-phenyl]-cyclopropanecarboxylic acid] | > 2 |  | 
21 | CCn1c(=O)c(=O)n(CC)c2cc(-c3cc(/C=C/C(=O)O)ccc3OC(F)(F)F)c(C)cc21 [Compound 24, 3-[3-(1,4-Diethyl-7-methyl-2,3-dioxo-1,2,3,4-tetrahydro-quinoxalin-6-yl)-4-trifluoromethoxy-phenyl]-acrylic acid] | > 2 |  | 
22 | CCN1C(=O)CN(C(C)C)c2cc(C)c(-c3cc(/C=C/C(=O)O)ccc3OC(F)(F)F)cc21 [Compound 25, 3-[3-(4-Ethyl-1-isopropyl-7-methyl-3-oxo-1,2,3,4-tetrahydro-quinoxalin-6-yl)-4-trifluoromethoxy-phenyl]-acrylic acid] | > 2 |  | 
23 | CCN1CC(C)(C)Oc2cc(C)c(-c3cc(/C=C/C(=O)O)ccc3OC(F)(F)F)cc21 [Compound 27, 3-[3-(4-Ethyl-2,2,7-trimethyl-3,4-dihydro-2H-benzo[1,4]oxazin-6-yl)-4-trifluoromethoxy-phenyl]-acrylic acid] | > 2 |  | 
